Data taken from ChEMBL document CHEMBL3885861, “Open TG-GATES”.

Organism: Rattus norvegicus
Test: Open TG-GATES - Regimen: Single
Format: toxicity, organism-based, Sprague-Dawley
Set-up: regimen Single, gender Male, age 6 weeks
Conditions: in vivo, po, 0 mg/kg, route gavage, dose level Control; for APTT / Bas / Eos / Fbg / Hb / Ht / Lym / MCH / MCHC / MCV / Mono / Neu / PT / Plat / RBC / Ret / WBC: tissue Blood; for KIDNEY_L / KIDNEY_R / KIDNEY_TOTAL: tissue Kidney; for LIVER: tissue Liver; for A/G / ALP / ALT / AST / BUN / CRE / Ca / Cl / DBIL / GLC / IP / K / LDH / Na / PL / RALB / TBIL / TC / TG / TP / gamma-GTP: tissue Plasma

CC(CN1c2ccccc2Sc2ccccc21)N(C)C (configuration not stated) [PROMETHAZINE]
TERMINAL_BW (3 h): 213.5 g
APTT (3 h): 22.4 s
Bas (3 h): 0%
Eos (3 h): 0.8%
Fbg (3 h): 333.6 mg/dL
Hb (3 h): 13 g/dL
Ht (3 h): 39.9%
Lym (3 h): 81.4%
MCH (3 h): 20.6 pg
MCHC (3 h): 32.6%
MCV (3 h): 63.4 fL
Mono (3 h): 2.4%
Neu (3 h): 15.2%
PT (3 h): 16.4 s
Plat (3 h): 117.1 x10_4/uL
RBC (3 h): 629.4 x10_4/ul
Ret (3 h): 8.5%
WBC (3 h): 94.5 x10_2/uL
KIDNEY_L (3 h): 0.9 g
KIDNEY_R (3 h): 1 g
KIDNEY_TOTAL (3 h): 1.9 g
LIVER (3 h): 9.9 g
A/G (3 h): 1.2
ALP (3 h): 1819.4 IU/L
ALT (3 h): 42.8 IU/L
AST (3 h): 76 IU/L
BUN (3 h): 12.8 mg/dL
CRE (3 h): 0.2 mg/dL
Ca (3 h): 10.9 mg/dL
Cl (3 h): 105.8 meq/L
DBIL (3 h): 0 mg/dL
GLC (3 h): 190.4 mg/dL
IP (3 h): 8.1 mg/dL
K (3 h): 4.4 meq/L
LDH (3 h): 234.4 IU/L
Na (3 h): 142.2 meq/L
PL (3 h): 134.2 mg/dL
RALB (3 h): 3 g/dL
TBIL (3 h): 0.016 mg/dL
TC (3 h): 75 mg/dL
TG (3 h): 64.2 mg/dL
TP (3 h): 5.5 g/dL
gamma-GTP (3 h): 1.2 IU/L
TERMINAL_BW (6 h): 210.9 g
APTT (6 h): 22.7 s
Bas (6 h): 0%
Eos (6 h): 1%
Fbg (6 h): 310.8 mg/dL
Hb (6 h): 13.3 g/dL
Ht (6 h): 39.9%
Lym (6 h): 82.6%
MCH (6 h): 20.9 pg
MCHC (6 h): 33.4%
MCV (6 h): 62.5 fL
Mono (6 h): 2.4%
Neu (6 h): 13.6%
PT (6 h): 16.7 s
Plat (6 h): 111.7 x10_4/uL
RBC (6 h): 639.6 x10_4/ul
Ret (6 h): 7.3%
WBC (6 h): 81.5 x10_2/uL
KIDNEY_L (6 h): 1 g
KIDNEY_R (6 h): 1 g
KIDNEY_TOTAL (6 h): 2 g
LIVER (6 h): 8.7 g
A/G (6 h): 1.3
ALP (6 h): 1393.4 IU/L
ALT (6 h): 41.4 IU/L
AST (6 h): 76.2 IU/L
BUN (6 h): 11.2 mg/dL
CRE (6 h): 0.2 mg/dL
Ca (6 h): 10.9 mg/dL
Cl (6 h): 104.8 meq/L
DBIL (6 h): 0 mg/dL
GLC (6 h): 186.2 mg/dL
IP (6 h): 9.4 mg/dL
K (6 h): 4.3 meq/L
LDH (6 h): 208.2 IU/L
Na (6 h): 141.2 meq/L
PL (6 h): 133.8 mg/dL
RALB (6 h): 3 g/dL
TBIL (6 h): 0.018 mg/dL
TC (6 h): 83.2 mg/dL
TG (6 h): 53 mg/dL
TP (6 h): 5.4 g/dL
gamma-GTP (6 h): 1.8 IU/L
TERMINAL_BW (9 h): 207.6 g
APTT (9 h): 22.2 s
Bas (9 h): 0%
Eos (9 h): 0.8%
Fbg (9 h): 318.8 mg/dL
Hb (9 h): 13.1 g/dL
Ht (9 h): 40.1%
Lym (9 h): 80%
MCH (9 h): 20.8 pg
MCHC (9 h): 32.6%
MCV (9 h): 64 fL
Mono (9 h): 3%
Neu (9 h): 15.6%
PT (9 h): 16.7 s
Plat (9 h): 123.9 x10_4/uL
RBC (9 h): 627.6 x10_4/ul
Ret (9 h): 8.1%
WBC (9 h): 107.3 x10_2/uL
KIDNEY_L (9 h): 1 g
KIDNEY_R (9 h): 1 g
KIDNEY_TOTAL (9 h): 1.9 g
LIVER (9 h): 8.7 g
A/G (9 h): 1.2
ALP (9 h): 1357.2 IU/L
ALT (9 h): 38.8 IU/L
AST (9 h): 68 IU/L
BUN (9 h): 12.4 mg/dL
CRE (9 h): 0.2 mg/dL
Ca (9 h): 10.6 mg/dL
Cl (9 h): 104.6 meq/L
DBIL (9 h): 0.004 mg/dL
GLC (9 h): 191.2 mg/dL
IP (9 h): 10 mg/dL
K (9 h): 4.5 meq/L
LDH (9 h): 237.8 IU/L
Na (9 h): 140.4 meq/L
PL (9 h): 125.8 mg/dL
RALB (9 h): 3 g/dL
TBIL (9 h): 0.016 mg/dL
TC (9 h): 73.2 mg/dL
TG (9 h): 55 mg/dL
TP (9 h): 5.4 g/dL
gamma-GTP (9 h): 1.2 IU/L
TERMINAL_BW (24 h): 222 g
APTT (24 h): 22.1 s
Bas (24 h): 0%
Eos (24 h): 0.8%
Fbg (24 h): 326.8 mg/dL
Hb (24 h): 13.5 g/dL
Ht (24 h): 40.2%
Lym (24 h): 81.6%
MCH (24 h): 20.8 pg
MCHC (24 h): 33.5%
MCV (24 h): 62.2 fL
Mono (24 h): 2%
Neu (24 h): 14.8%
PT (24 h): 17 s
Plat (24 h): 131.7 x10_4/uL
RBC (24 h): 647.6 x10_4/ul
Ret (24 h): 7.2%
WBC (24 h): 130.1 x10_2/uL
KIDNEY_L (24 h): 1 g
KIDNEY_R (24 h): 1 g
KIDNEY_TOTAL (24 h): 2 g
LIVER (24 h): 10.5 g
A/G (24 h): 1.3
ALP (24 h): 1690.8 IU/L
ALT (24 h): 44.2 IU/L
AST (24 h): 73.2 IU/L
BUN (24 h): 15.8 mg/dL
CRE (24 h): 0.2 mg/dL
Ca (24 h): 11 mg/dL
Cl (24 h): 106.6 meq/L
DBIL (24 h): 0 mg/dL
GLC (24 h): 192.6 mg/dL
IP (24 h): 7.2 mg/dL
K (24 h): 4.4 meq/L
LDH (24 h): 180.6 IU/L
Na (24 h): 142.4 meq/L
PL (24 h): 141.4 mg/dL
RALB (24 h): 3.1 g/dL
TBIL (24 h): 0.004 mg/dL
TC (24 h): 74.4 mg/dL
TG (24 h): 95.8 mg/dL
TP (24 h): 5.5 g/dL
gamma-GTP (24 h): 1.4 IU/L
